This note sets out measurements from US12168012B2, “NLRP3 inflammasome inhibitors” (Novartis AG, priority 2018, dated 2024).

Molecules are shown by their SMILES.

The test concerns NLRP3 inflammasome. The test is described as follows: IL-1β secretion assay. In kind it is cell-based. Conditions: Homo sapiens, THP-1, 3 h, PMA-differentiated THP-1 cells, 15 μM nigericin, HTRF. Here is the method:
10 μL supernatant was removed, and IL-1p levels were monitored using an HTRF assay (CisBio, #62IL1PEC) according to manufacturers' instructions. Viability and pyroptosis was monitored with the addition of PrestoBlue cell viability reagent (Life Technologies, #A13261) directly to the cell culture plate.
IC50 values were calculated from the plot of percentage of inhibition versus the inhibitor concentration by a logistics fit according to: y=A2+(A1−A2)/(1+(x/IC50)^p) where y is the %-inhibition at the inhibitor concentration, x. A1 is the lowest inhibition value, i.e. 0%, and A2 the maximum inhibition value, i.e. 100%. The exponent, p, is the Hill coefficient. The curve fitting was conducted with an internally developed software suite.
NLRP3-dependent IL-1β secretion was stimulated in PMA-differentiated THP-1 cells by the addition of nigericin, and cytokines were measured in the […] after 3 hours. As discussed above, activation of the NLRP3 inflammasome requires both an NF-kB-dependent priming step and the addition of a NLRP3 activator.
On the technique in general: Time-resolved FRET reads energy transfer from a long-lived donor to a nearby acceptor.
As to `CC(C)c1nn(CC(=O)Nc2nccs2)c(=O)c2cc3sc(Cl)cc3n12` [Ex 11, 2-(2-Chloro-5-isopropyl-8-oxothieno[2′,3′:4,5]pyrrolo[1,2-d][1,2,4]triazin-7(8H)-yl)-N-(thiazol-2-yl)acetamide], the half-inhibitory concentration (IC50) was 62.5 nM.

As to `CC(C)c1nn(CC(=O)Nc2cncs2)c(=O)c2cc3sc(Cl)cc3n12` [Ex 12, 2-(2-Chloro-5-isopropyl-8-oxothieno[2′,3′:4,5]pyrrolo[1,2-d][1,2,4]triazin-7(8H)-yl)-N-(thiazol-5-yl)acetamide], 23.7 nM corresponded to half-maximal inhibition (IC50).

As for `CC(C)c1nn(CC(=O)Nc2cccnc2Cl)c(=O)c2cc3sc(Cl)cc3n12` [Ex 13, 2-(2-Chloro-5-isopropyl-8-oxothieno[2′,3′:4,5]pyrrolo[1,2-d][1,2,4]triazin-7(8H)-yl)-N-(2-chloropyridin-3-yl)acetamide], 94 nM corresponded to half-maximal inhibition (IC50).

Consider `CC(C)c1nn(CC(=O)Nc2ccc(F)nc2)c(=O)c2cc3sc(Cl)cc3n12` [Ex 14, 2-(2-Chloro-5-isopropyl-8-oxothieno[2′,3′:4,5]pyrrolo[1,2-d][1,2,4]triazin-7(8H)-yl)-N-(6-fluoropyridin-3-yl)acetamide], for which half-maximal inhibition (IC50) was put at 90.6 nM.

As to `CC(C)c1nn(CC(=O)Nc2ncncc2F)c(=O)c2cc3sc(Cl)cc3n12` [Ex 15, 2-(2-Chloro-5-isopropyl-8-oxothieno[2′,3′:4,5]pyrrolo[1,2-d][1,2,4]triazin-7(8H)-yl)-N-(5-fluoropyrimidin-4-yl)acetamide], the IC50 is 5.4 nM.

On to `CC(C)c1nn(CC(=O)Nc2ncncc2Cl)c(=O)c2cc3sc(Cl)cc3n12` [Ex 16, 2-(2-Chloro-5-isopropyl-8-oxothieno[2′,3′:4,5]pyrrolo[1,2-d][1,2,4]triazin-7(8H)-yl)-N-(5-chloropyrimidin-4-yl)acetamide], for which inhibition was half-maximal at 57.3 nM (IC50).

`CC(C)c1nn(CC(=O)N[C@@H]2CC[C@@H](N)C2)c(=O)c2cc3sc(Cl)cc3n12` [Ex 22, N-((1R,3R)-3-Aminocyclopentyl)-2-(2-chloro-5-isopropyl-8-oxothieno[2′,3′:4,5]pyrrolo[1,2-d][1,2,4]triazin-7(8H)-yl)acetamide] yielded an IC50 of 408 nM.

In the case of `CC(C)c1nn(CC(=O)N[C@]2(C)C[C@@H](O)C2)c(=O)c2cc3sc(Cl)cc3n12` [Ex 23, 2-(2-Chloro-5-isopropyl-8-oxothieno[2′,3′:4,5]pyrrolo[1,2-d][1,2,4]triazin-7(8H)-yl)-N-((1r,3r)-3-hydroxy-1-methylcyclobutyl)acetamide], inhibition was half-maximal at 452 nM (IC50).

The compound `CC(C)c1nn(CC(=O)Nc2ccnn2C)c(=O)c2cc3sc(Cl)cc3n12` [Ex 57, 2-(2-Chloro-5-isopropyl-8-oxothieno[2′,3′:4,5]pyrrolo[1,2-d][1,2,4]triazin-7(8H)-yl)-N-(1-methyl-1H-pyrazol-5-yl)acetamide] displayed an IC50 of 61.5 nM.

The compound `CC(C)(O)c1nn(CC(=O)Nc2ccc3cn[nH]c3c2)c(=O)c2cc3sc(Cl)cc3n12` [Ex 65, 2-(2-Chloro-5-(2-hydroxypropan-2-yl)-8-oxothieno[2′,3′:4,5]pyrrolo[1,2-d][1,2,4]triazin-7(8H)-yl)-N-(1H-indazol-6-yl)acetamide] came in with an IC50 of 6.2 nM.

On to `Cc1n[nH]c2cc(NC(=O)Cn3nc(C(C)(C)O)n4c(cc5sc(Cl)cc54)c3=O)ccc12` [Ex 66, 2-(2-Chloro-5-(2-hydroxypropan-2-yl)-8-oxothieno[2′,3′:4,5]pyrrolo[1,2-d][1,2,4]triazin-7(8H)-yl)-N-(3-methyl-1H-indazol-6-yl)acetamide], for which the IC50 came out at 7.8 nM.

The compound `CC(C)(O)c1nn(CC(=O)Nc2ccc3cc[nH]c3c2)c(=O)c2cc3sc(Cl)cc3n12` [Ex 67, 2-(2-Chloro-5-(2-hydroxypropan-2-yl)-8-oxothieno[2′,3′:4,5]pyrrolo[1,2-d][1,2,4]triazin-7(8H)-yl)-N-(1H-indol-6-yl)acetamide] had an IC50 of 212 nM.

`CC(C)c1nn(CC(=O)N[C@H]2C[C@](C)(O)C2)c(=O)c2cc3sc(Cl)cc3n12` [Ex 71, 2-(2-Chloro-5-isopropyl-8-oxothieno[2′,3′:4,5]pyrrolo[1,2-d][1,2,4]triazin-7(8H)-yl)-N-((1r,3r)-3-hydroxy-3-methylcyclobutyl)acetamide]: the IC50 worked out at 15.9 nM.

For `CC(C)c1nn(CC(=O)NC2CC3(CC(O)C3)C2)c(=O)c2cc3sc(Cl)cc3n12` (stereo not drawn) [Ex 73, 2-(2-Chloro-5-isopropyl-8-oxothieno[2′,3′:4,5]pyrrolo[1,2-d][1,2,4]triazin-7(8H)-yl)-N-(6-hydroxyspiro[3.3]heptan-2-yl)acetamide], the IC50 came to 14.5 nM.

On to `CC(C)c1nn(CC(=O)N[C@H]2C[C@](O)(C(F)(F)F)C2)c(=O)c2cc3sc(Cl)cc3n12` [Ex 74, 2-(2-Chloro-5-isopropyl-8-oxothieno[2′,3′:4,5]pyrrolo[1,2-d][1,2,4]triazin-7(8H)-yl)-N-((1s,3s)-3-hydroxy-3-(trifluoromethyl)cyclobutyl)acetamide], for which inhibition was half-maximal at 4.4 nM (IC50).

Consider `CC(C)c1nn(CC(=O)N[C@@H]2CCCN(CCOC(F)(F)F)C2)c(=O)c2cc3sc(Cl)cc3n12` [Ex 78, (R)-2-(2-Chloro-5-isopropyl-8-oxothieno[2′,3′:4,5]pyrrolo[1,2-d][1,2,4]triazin-7(8H)-yl)-N-(1-(2-(trifluoromethoxy)ethyl)piperidin-3-yl)acetamide], for which the concentration for half-maximal inhibition (IC50) worked out at 71.4 nM.

`CC(C)(O)CCNC(=O)Cn1nc(C(C)(C)O)n2c(cc3sc(Cl)cc32)c1=O` [Ex 80] returned an IC50 of 60.7 nM.

In turn, `CC(C)c1nn(CC(=O)NCCC(C)(C)O)c(=O)c2cc3sc(F)cc3n12` [Ex 84, 2-(2-Fluoro-5-isopropyl-8-oxothieno[2′,3′:4,5]pyrrolo[1,2-d][1,2,4]triazin-7(8H)-yl)-N-(3-hydroxy-3-methylbutyl)acetamide] returned an IC50 of 12.9 nM.

The compound `CC(C)c1nn(CC(=O)NC[C@@H](C)O)c(=O)c2cc3sc(F)cc3n12` [Ex 85, (R)-2-(2-Fluoro-5-isopropyl-8-oxothieno[2′,3′:4,5]pyrrolo[1,2-d][1,2,4]triazin-7(8H)-yl)-N-(2-hydroxypropyl)acetamide] displayed an IC50 of 130 nM.

`CC(C)c1nn(CC(=O)N[C@H]2C[C@](C)(O)C2)c(=O)c2cc3sc(F)cc3n12` [Ex 86, 2-(2-Fluoro-5-isopropyl-8-oxothieno[2′,3′:4,5]pyrrolo[1,2-d][1,2,4]triazin-7(8H)-yl)-N-((1r,3r)-3-hydroxy-3-methylcyclobutyl)acetamide] came in with an IC50 of 41.2 nM.

`CC(C)c1nn(CC(=O)N[C@H]2C[C@@](C)(O)C2)c(=O)c2cc3sc(F)cc3n12` [Ex 87, 2-(2-Fluoro-5-isopropyl-8-oxothieno[2′,3′:4,5]pyrrolo[1,2-d][1,2,4]triazin-7(8H)-yl)-N-((1s,3s)-3-hydroxy-3-methylcyclobutyl)acetamide] returned an IC50 of 1 nM.

Compound `Cc1nc2c(cc3c(=O)n(CC(=O)N[C@@H]4CCCN(C)C4)nc(C(C)C)n32)s1` [Ex 92, (R)-2-(5-Isopropyl-2-methyl-8-oxothiazolo[5′,4′:4,5]pyrrolo[1,2-d][1,2,4]triazin-7(8H)-yl)-N-(1-methylpiperidin-3-yl)acetamide] had an IC50 of 65.2 nM.

Regarding `CC(C)c1nn(CC(=O)N[C@H]2C[C@@](C)(O)C2)c(=O)c2cc3scnc3n12` [Ex 93, N-((1s,3s)-3-Hydroxy-3-methylcyclobutyl)-2-(5-isopropyl-8-oxothiazolo[5′,4′:4,5]pyrrolo[1,2-d][1,2,4]triazin-7(8H)-yl)acetamide], the midpoint of inhibition, the IC50, lay at 0.8 nM.

The compound `CC(C)c1nn(CC(=O)NCCC(C)(C)O)c(=O)c2cc3scnc3n12` [Ex 94, N-(3-Hydroxy-3-methylbutyl)-2-(5-isopropyl-8-oxothiazolo[5′,4′:4,5]pyrrolo[1,2-d][1,2,4]triazin-7(8H)-yl)acetamide] gave an IC50 of 64.9 nM.

Compound `CC(C)c1nn(CC(=O)NC[C@@H](C)O)c(=O)c2cc3scnc3n12` [Ex 95, (R)-N-(2-Hydroxypropyl)-2-(5-isopropyl-8-oxothiazolo[5′,4′:4,5]pyrrolo[1,2-d][1,2,4]triazin-7(8H)-yl)acetamide] returned an IC50 of 246 nM.

`CC(C)c1nn(CC(=O)N[C@@H]2CCC(=O)N(C)C2)c(=O)c2cc3scnc3n12` [Ex 97, (R)-2-(5-Isopropyl-8-oxothiazolo[5′,4′:4,5]pyrrolo[1,2-d][1,2,4]triazin-7(8H)-yl)-N-(1-methyl-6-oxopiperidin-3-yl)acetamide] gave an IC50 of 18.3 nM.

`CC(C)c1nn(CC(=O)NC2CCCC2)c(=O)c2cc3scnc3n12` [Ex 98, N-Cyclopentyl-2-(5-isopropyl-8-oxothiazolo[5′,4′:4,5]pyrrolo[1,2-d][1,2,4]triazin-7(8H)-yl)acetamide] displayed an IC50 of 271 nM.

For the compound `CC(C)c1nn(CC(=O)NC2CCCC2)c(=O)c2cc3sc(Cl)cc3n12` [Ex 101, 2-(2-chloro-5-Isopropyl-8-oxothieno[2′,3′:4,5]pyrrolo[1,2-d][1,2,4]triazin-7(8H)-yl)-N-cyclopentylacetamide], the IC50 was determined as 381 nM.

Turning to `CC(C)c1nn(CC(=O)N[C@H]2CCNC2)c(=O)c2cc3sc(Cl)cc3n12` [Ex 102, (S)-2-(2-Chloro-5-isopropyl-8-oxothieno[2′,3′:4,5]pyrrolo[1,2-d][1,2,4]triazin-7(8H)-yl)-N-(pyrrolidin-3-yl)acetamide], the IC50 was 886 nM.

Compound `CC(C)c1nn(CC(=O)N[C@@H]2CCN(C)C2)c(=O)c2cc3sc(Cl)cc3n12` [Ex 104, (R)-2-(2-Chloro-5-isopropyl-8-oxothieno[2′,3′:4,5]pyrrolo[1,2-d][1,2,4]triazin-7(8H)-yl)-N-(1-methylpyrrolidin-3-yl)acetamide] yielded an IC50 of 254 nM.

A word on the IC50: it is the concentration at which inhibition is half-maximal.
